The source of these data is ChEMBL document CHEMBL3407393, “Optimisation of LRRK2 inhibitors and assessment of functional efficacy in cell-based models of neuroinflammation” (Eur J Med Chem, 2015).

Data set [1] is described as follows: Inhibition of IL6 secretion in LPS/IL-1beta-stimulated human U87 cells compound pretreated at 10 uM for 30 mins before stimulation measured after 24 hrs by ELISA. The data set is classed as functional, U-87MG ATCC. The following applies: U-87 MG.
For data set [2], the target named is Leucine-rich repeat serine/threonine-protein kinase 2 (Homo sapiens, UniProt Q5S007, G2019S). The data set is described as follows: Inhibition of LRRK2 G2019S mutant ([…]) (unknown origin) stably expressed in HEK293 cell lysate using [gamma-32P] after 15 mins by Cerenkov counting method. The format is cell-free.
Sequence of Leucine-rich repeat serine/threonine-protein kinase 2 (Q5S007 whole entry G2019S): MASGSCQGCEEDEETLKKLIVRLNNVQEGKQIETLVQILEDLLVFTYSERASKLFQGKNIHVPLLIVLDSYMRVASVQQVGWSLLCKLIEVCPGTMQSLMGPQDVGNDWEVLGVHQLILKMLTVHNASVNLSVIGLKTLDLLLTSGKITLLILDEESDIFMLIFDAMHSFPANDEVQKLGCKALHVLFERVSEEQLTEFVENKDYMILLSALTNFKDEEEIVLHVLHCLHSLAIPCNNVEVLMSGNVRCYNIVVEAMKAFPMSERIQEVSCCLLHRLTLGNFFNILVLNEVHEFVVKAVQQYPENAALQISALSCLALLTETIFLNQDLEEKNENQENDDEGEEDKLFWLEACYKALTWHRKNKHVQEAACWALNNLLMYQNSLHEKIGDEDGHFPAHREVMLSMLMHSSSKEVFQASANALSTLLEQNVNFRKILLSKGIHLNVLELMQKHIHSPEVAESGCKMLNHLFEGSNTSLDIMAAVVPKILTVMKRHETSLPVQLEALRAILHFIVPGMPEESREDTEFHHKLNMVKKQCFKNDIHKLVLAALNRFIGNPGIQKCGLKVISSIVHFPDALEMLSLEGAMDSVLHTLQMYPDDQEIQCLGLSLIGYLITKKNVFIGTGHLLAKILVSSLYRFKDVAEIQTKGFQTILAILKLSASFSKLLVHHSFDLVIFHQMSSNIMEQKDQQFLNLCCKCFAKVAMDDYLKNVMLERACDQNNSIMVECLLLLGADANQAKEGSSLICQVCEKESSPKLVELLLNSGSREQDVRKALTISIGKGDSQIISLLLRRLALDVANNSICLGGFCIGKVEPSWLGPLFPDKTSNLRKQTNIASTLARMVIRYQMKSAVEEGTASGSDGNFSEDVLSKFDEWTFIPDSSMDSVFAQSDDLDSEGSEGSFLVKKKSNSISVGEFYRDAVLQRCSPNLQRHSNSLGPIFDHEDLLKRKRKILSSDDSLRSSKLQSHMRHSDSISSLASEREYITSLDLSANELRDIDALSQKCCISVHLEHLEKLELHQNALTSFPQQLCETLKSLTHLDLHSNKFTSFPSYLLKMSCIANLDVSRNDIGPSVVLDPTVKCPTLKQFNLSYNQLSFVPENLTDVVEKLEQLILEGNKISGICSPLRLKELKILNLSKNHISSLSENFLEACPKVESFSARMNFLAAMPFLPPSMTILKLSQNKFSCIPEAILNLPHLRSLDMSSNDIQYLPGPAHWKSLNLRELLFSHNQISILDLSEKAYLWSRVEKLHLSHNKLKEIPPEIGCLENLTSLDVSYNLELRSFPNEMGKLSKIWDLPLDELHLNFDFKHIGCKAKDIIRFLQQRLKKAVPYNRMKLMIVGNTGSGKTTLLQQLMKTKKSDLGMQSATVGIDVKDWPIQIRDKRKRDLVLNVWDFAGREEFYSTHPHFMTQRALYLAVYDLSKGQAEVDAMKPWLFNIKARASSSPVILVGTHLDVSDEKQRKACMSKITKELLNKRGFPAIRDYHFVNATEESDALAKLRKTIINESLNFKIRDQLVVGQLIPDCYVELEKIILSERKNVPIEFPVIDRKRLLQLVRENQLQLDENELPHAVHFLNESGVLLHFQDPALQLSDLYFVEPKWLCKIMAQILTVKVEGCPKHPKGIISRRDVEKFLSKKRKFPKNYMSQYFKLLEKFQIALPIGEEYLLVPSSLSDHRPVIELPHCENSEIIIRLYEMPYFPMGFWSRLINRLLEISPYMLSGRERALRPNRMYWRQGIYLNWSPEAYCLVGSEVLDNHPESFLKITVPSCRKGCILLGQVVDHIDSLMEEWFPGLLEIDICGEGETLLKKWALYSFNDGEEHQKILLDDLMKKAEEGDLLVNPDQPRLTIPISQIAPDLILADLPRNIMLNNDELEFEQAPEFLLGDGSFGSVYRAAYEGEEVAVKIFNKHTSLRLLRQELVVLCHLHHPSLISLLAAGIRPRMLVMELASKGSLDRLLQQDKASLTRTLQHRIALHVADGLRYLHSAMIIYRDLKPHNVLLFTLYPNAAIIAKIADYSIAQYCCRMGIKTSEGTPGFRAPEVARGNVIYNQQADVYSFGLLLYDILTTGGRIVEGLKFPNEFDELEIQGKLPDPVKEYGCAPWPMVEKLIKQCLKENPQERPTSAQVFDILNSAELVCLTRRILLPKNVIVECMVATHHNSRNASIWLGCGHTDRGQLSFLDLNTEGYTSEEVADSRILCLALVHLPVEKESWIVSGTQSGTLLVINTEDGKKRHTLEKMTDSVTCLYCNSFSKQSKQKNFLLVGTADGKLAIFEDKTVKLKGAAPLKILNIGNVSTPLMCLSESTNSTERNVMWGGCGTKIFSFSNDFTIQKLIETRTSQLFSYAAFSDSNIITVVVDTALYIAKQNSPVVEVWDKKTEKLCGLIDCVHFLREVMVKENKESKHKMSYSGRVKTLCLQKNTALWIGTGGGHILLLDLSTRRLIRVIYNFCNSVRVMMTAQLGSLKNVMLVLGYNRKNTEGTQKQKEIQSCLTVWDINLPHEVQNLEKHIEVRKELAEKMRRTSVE
Data set [3] in a line: (§1) Inhibition of IL6 secretion in LPS/IL-1beta-stimulated human primary microglia compound pretreated at 10 uM for 30 mins before stimulation measured after 24 hrs by ELISA. The data set is classed as functional. (In general: ELISA stands for enzyme-linked immunosorbent assay.)
Data set [4] is described as follows: Oral bioavailability in mouse. The format is ADME, organism-based. The conditions noted are these: in vivo.
A short description of data set [5]: Biochemical index, ratio of IC50 for LRRK2 G2019S mutant (unknown origin) to EC50 for IL6 secretion in LPS/IL-1beta-stimulated human primary microglia.
Data set [6] can be described thus: Inhibition of IL6 secretion in LPS/IL-1beta-stimulated human primary microglia compound pretreated for 30 mins before stimulation measured after 24 hrs by ELISA. The data set is classed as functional.
The nature of data set [7]: Inhibition of IL6 secretion in LPS/IL-1beta-stimulated human U87 cells compound pretreated for 30 mins before stimulation measured after 24 hrs by ELISA. The conditions noted are these: U-87 MG. The data set is classed as functional, cell-based, U-87MG ATCC.
The species entered for a further data set is Homo sapiens. The data set is described as §1. The format is functional.

As usually defined, the inhibition is the share of the control response that was lost under treatment. By IC50 is commonly meant the midpoint of a concentration-inhibition curve. Broadly, the bioavailability is the share of a dose that reaches the circulation, judged against a reference dose that is usually intravenous. A higher bioavailability goes with much systemic uptake. What is called EC50 is the concentration giving half of the maximal effect.

Structures are written as SMILES. The source made the active and inactive calls. The rule behind the calls is not given here.

As to `O=C(c1ccc(Nc2ccc([N+](=O)[O-])cc2)c(Cl)c1)N1CCC(N2CCCCC2)CC1`, the inhibition at 10 µM in data set [1] was found to be 47.9%; in data set [3] it was 53.6%. In addition, the IC50 in data set [2] is > 1000 nM.
On the same counts, the results for `O=C(c1ccc(NCc2ccc([N+](=O)[O-])cc2)c(Cl)c1)N1CCC(N2CCCCC2)CC1` are 56.4%, 56.3% and > 1000 nM.
In the case of `COc1ccccc1Nc1ccc(C(=O)N2CCC(N3CCCCC3)CC2)cc1Cl`, the inhibition at 10 µM was found to be 58.6% in data set [1] and 56.6% in data set [3]. In addition, the IC50 in data set [2] was > 1000 nM.
On the same counts, the results for `CN1Cc2ccccc2N(C)c2nc(Nc3ccc(C(=O)N4CCC(N5CCCCC5)CC4)cc3Cl)ncc21` are 58.8%, 70% and 51.2 nM.
On the same counts, the results for `O=C(c1ccc(Nc2cccnc2)c(Cl)c1)N1CCC(N2CCCCC2)CC1` are 46.6%, 36.3% and > 1000 nM.
On the same counts, the results for `O=C(c1ccc(Nc2ccccc2[N+](=O)[O-])c(Cl)c1)N1CCC(N2CCCCC2)CC1` are 45.6%, 65.4% and > 1000 nM.
On to `COc1cc(C(=O)N2CCC(N3CCN(C)CC3)CC2)ccc1Nc1ncc2c(n1)N(C)c1ccccc1C(=O)N2C`, for which the bioavailability in data set [4] was determined as 49.3%. Moreover, the inhibition at 10 µM in data set [1] came to 94.1%; in data set [3], 95%. In addition, the IC50 in data set [2] is 7.9 nM. Besides, the “Ratio IC50/EC50” value in data set [5] worked out at 0.009. The EC50 in data set [6] was 830 nM; in data set [7] it was 660 nM.
Take `O=C(c1ccc(Nc2ncccn2)c(Cl)c1)N1CCC(N2CCCCC2)CC1`: the results for the inhibition at 10 µM in data set [1] and in data set [3] were 39.3% and 46.4%, respectively. Also, in data set [2], the IC50 was > 1000 nM.
For the compound `CCCNc1ccc(C(=O)N2CCC(N3CCCCC3)CC2)cc1Cl`, the inhibition at 10 µM was found to be 55.8% in data set [1] and 47.6% in data set [3]. Also, in data set [2], the IC50 was > 1000 nM.
The matching figures for `CN1C(=O)c2ccccc2N(C)c2nc(Cl)ncc21`: 23.2%, 18% and > 1000 nM.
As for `O=C(c1ccc(NCc2ccccc2)c(Cl)c1)N1CCC(N2CCCCC2)CC1`, the inhibition at 10 µM in data set [1] was 62.6%; in data set [3] it was 65.3%. For the same compound, the IC50 in data set [2] was > 1000 nM.
The matching figures for `Cn1cccc1CNc1ccc(C(=O)N2CCC(N3CCCCC3)CC2)cc1Cl`: 42.4%, 17.3% and > 1000 nM.
For the compound `O=C(c1ccc(Nc2ccccc2)c(Cl)c1)N1CCC(N2CCCCC2)CC1`, the inhibition at 10 µM turned out to be 32.3% in data set [1] and 44.7% in data set [3]. For the same compound, the IC50 in data set [2] was > 1000 nM.
For the compound `CN1C(=O)c2ccccc2N(C)c2nc(Nc3ccc(C(=O)N4CCC(N5CCCCC5)CC4)cc3Cl)ncc21`, the inhibition at 10 µM in data set [1] came out at 87.9%; in data set [3], 81.3%. Besides, 72 nM corresponded to half-maximal inhibition in data set [2] (IC50). Besides, the “Ratio IC50/EC50” value in data set [5] amounted to 0.017. The EC50 worked out at 4260 nM in data set [6] and 3680 nM in data set [7].
As to `Nc1ccc(C(=O)N2CCC(N3CCCCC3)CC2)cc1Cl`, the inhibition at 10 µM in data set [1] was found to be 49.9%; in data set [3], 16.9%. Moreover, the IC50 in data set [2] is 654 nM.
In the case of `O=C(c1ccc(Nc2ccccn2)c(Cl)c1)N1CCC(N2CCCCC2)CC1`, the inhibition at 10 µM in data set [1] came out at 46.7%; in data set [3], 7.3%. For the same compound, the IC50 in data set [2] is > 1000 nM.
The matching figures for `Cc1ccc(Nc2ccc(C(=O)N3CCC(N4CCCCC4)CC3)cc2Cl)cc1`: 37.8%, 29.7% and > 1000 nM.
On the same counts, the results for `Cc1ccc(CNc2ccc(C(=O)N3CCC(N4CCCCC4)CC3)cc2Cl)cc1` are 36.1%, 42% and > 1000 nM.
The matching figures for `CN1Cc2ccccc2N(C)c2nc(Cl)ncc21`: 64.6%, 6.3% and > 1000 nM.
Turning to `CC(=O)Nc1ccc(Nc2ccc(C(=O)N3CCC(N4CCCCC4)CC3)cc2Cl)cc1`, the inhibition at 10 µM was 36.1% in data set [1] and 31.8% in data set [3]. In addition, in data set [2], the IC50 was > 1000 nM.
As to `O=C(c1ccc(Nc2cncnc2)c(Cl)c1)N1CCC(N2CCCCC2)CC1`, the inhibition at 10 µM in data set [1] is 40.7%. In data set [2], the IC50 was > 1000 nM.
In the case of `COc1cccc(Nc2ccc(C(=O)N3CCC(N4CCCCC4)CC3)cc2Cl)c1`, the inhibition at 10 µM in data set [1] came to 47.8%; in data set [3], 53%. Also, the IC50 in data set [2] was > 1000 nM.
As to `O=C(Nc1ccc(C(=O)N2CCC(N3CCCCC3)CC2)cc1Cl)c1ccc[nH]1`, the inhibition at 10 µM in data set [1] was 51.9%. In addition, in data set [2], the half-maximal inhibitory concentration (IC50) was > 1000 nM. Also, the inhibition entry in the data set filed under Homo sapiens was “inactive”.
Consider `COc1cccc(CNc2ccc(C(=O)N3CCC(N4CCCCC4)CC3)cc2Cl)c1`, for which the inhibition at 10 µM is 52% in data set [1] and 52.9% in data set [3]. In addition, the IC50 in data set [2] was > 1000 nM.
The matching figures for `O=C(c1ccc(NC2CCCCC2)c(Cl)c1)N1CCC(N2CCCCC2)CC1`: 54.2%, 82.4% and > 1000 nM.
